One series relates to A549 cells. As to the kind of experiment: Cellular proliferation/cytotoxicity assay (Alamar Blue), A549 cells. The following applies: Homo sapiens, A549, 72 h, read-out: Anti-proliferative/Cytotoxic activity (A549 cells). Background: The colour change of resazurin is a common sign of viable cells or microbes.
Experimental: The anti-proliferative activity of the compounds as described herein, is evaluated using the OvCAR3, HCT116 and A549 cell lines and the Alamar Blue (Resazurin) cell viability assay (O'Brien et al. Eur J Biochem 267, 5421-5426, 2000). Resazurin is reduced to the fluorescent resorufin by cellular dehydrogenase activity, correlating with viable, proliferating cells. Test compounds are dissolved as 10 mM solutions in DMSO and subsequently diluted. Cells like HCT116 or A549 cells were seeded into 96 well flat bottom plates at a density of 10000 cells/well (OvCAR3 cells), 1000 cells/well (HCT116 cells) or 2000 cells/well (A549 cells) in a volume of 200 μl/well. 24 hours after seeding, 1 μl each of the compound dilutions are added into each well of the 96 well plates. Each compound dilution is tested as at least as duplicates. Wells containing untreated control cells were filled with 200 μl DMEM (Dulbecco's Modified Eagle Medium) containing 0.5 vol % v:v DMSO. The cells are then incubated with the substances for 72 h at 37° C. in a humidified atmosphere containing 5 vol % CO2. To determine the viability of the cells, 20 μl of a Resazurin solution (90 mg/l) are added. After 4 h incubation at 37° C., the fluorescence is measured by extinction at ? =544 nm and an emission of ? =590 nm (Wallac Victor2; Perkin Elmer, USA). For the calculation of the cell viability, the emission value from untreated cells is set as 100% viability and the fluorescence intensity of treated cells are set in relation to the values of untreated cells. Viabilities are expressed as % values. The corresponding IC50 values of the compounds for cytotoxic activity are determined from the concentration-effect curves by means of non-linear regression. The analysis of the data is performed using a biostatistical program (Graph Pad Prism, USA).
Regarding `O=C(O)c1ccn2c(-c3ccccc3)c(-c3ccc(CN4CCC(c5nnc(-c6ccccn6)[nH]5)CC4)cc3)nc2c1` [Example 125, 3-phenyl-2-[4-({4-[5-(pyridin-2-yl)-4H-1,2,4-triazol-3-yl]piperidin-1-yl}methyl)phenyl]imidazo[1,2-a]pyridine-7-carboxylic acid], the IC50 is above 10 µM.
On to `Brc1cccn2c(-c3ccccc3)c(-c3ccc(CN4CCC(c5n[nH]c(-c6ccccn6)n5)CC4)cc3)nc12` [Example 25, 8-bromo-3-phenyl-2-(4-{[4-(5-pyridin-2-yl-1,2,4-triazol-3-yl)piperidin-1-yl]methyl}phenyl)imidazo[1,2-a]pyridine], for which the IC50 was below 10 µM.
The same measure, in the same setting: under `Cc1cccc(-c2nnc(C3CCN(Cc4ccc(-c5nc6ncccn6c5-c5ccccc5)cc4)CC3)[nH]2)n1` [Example 63, 2-[4-({4-[5-(6-methylpyridin-2-yl)-4H-1,2,4-triazol-3-yl]piperidin-1-yl}methyl)phenyl]-3-phenylimidazo[1,2-a]pyrimidine] stands above 10 µM.
Consider `CCc1nn2c(-c3ccccc3)c(-c3ccc(CN4CCC(c5nnc(-c6ccccn6)[nH]5)CC4)cc3)nc2s1` [Example 51, 2-ethyl-5-phenyl-6-(4-{[4-(5-pyridin-2-yl-4H-1,2,4-triazol-3-yl)piperidin-1-yl]methyl}phenyl)imidazo[2,1-b][1,3,4]thiadiazole], for which the IC50 is below 10 µM.
Take `Cc1cccc(-c2nnc(C3CCN(Cc4ccc(-c5nc6ccc(C)nn6c5-c5ccccc5)cc4)CC3)[nH]2)n1` [Example 69, 6-methyl-2-[4-({4-[5-(6-methylpyridin-2-yl)-4H-1,2,4-triazol-3-yl]piperidin-1-yl}methyl)phenyl]-3-phenylimidazo[1,2-b]pyridazine]: the IC50 was below 10 µM.
With `Clc1ccc2nc(-c3ccc(CN4CCC(c5nnc(-c6ccccn6)[nH]5)CC4)cc3)c(-c3ccccc3)n2c1` [Example 7, 6-chloro-3-phenyl-2-(4-{[4-(5-pyridin-2-yl-4H-1,2,4-triazol-3-yl)piperidin-1-yl]methyl}phenyl)imidazo[1,2-a]pyridine], the IC50 was below 10 µM.

Still in this series, the particulars now being: read-out: Anti-proliferative/Cytotoxic activity (A549 cells); A549 cells, 72 h, Alamar Blue (Resazurin).
In the case of `N#Cc1ccn2c(-c3ccccc3)c(-c3ccc(CN4CCC(c5noc(-c6ccccn6)n5)CC4)cc3)nc2c1` [Example 115, ′3-phenyl-2-(4-{[4-(5-pyridin-2-yl-1,2,4-oxadiazol-3-yl)piperidin-1-yl]methyl}phenyl)imidazo[1,2-a]pyridine-7-carbonitrile], the IC50 is above 10 µM.
Same read-out and setting: under `N#Cc1ccn2c(-c3ccccc3)c(-c3ccc(CN4CCC(c5nnc(-c6ccc[nH]6)[nH]5)CC4)cc3)nc2c1` [Example 110, ′3-phenyl-2-[4-({4-[5-(1H-pyrrol-2-yl)-4H-1,2,4-triazol-3-yl]piperidin-1-yl}methyl)phenyl]imidazo[1,2-a]pyridine-7-carbonitrile] stands below 10 µM.
As to `c1ccc(-c2c(-c3ccc(CN4CCC(c5nnc(-c6ccc[nH]6)[nH]5)CC4)cc3)nc3sccn23)cc1` [Example 109, ′5-phenyl-6-[4-({4-[5-(1H-pyrrol-2-yl)-4H-1,2,4-triazol-3-yl]piperidin-1-yl}methyl)phenyl]imidazo[2,1-b][1,3]thiazole], the IC50 was below 10 µM.
For `c1ccc(-c2c(-c3ccc(CN4CCC(c5nnc(-c6ccco6)[nH]5)CC4)cc3)nc3ccccn23)cc1` [Example 91, ′2-[4-({4-[5-(2-furyl)-4H-1,2,4-triazol-3-yl]piperidin-1-yl}methyl)phenyl]-3-phenylimidazo[1,2-a]pyridine], the IC50 was below 10 µM.
The same measure, in the same setting: as for `c1ccc(-c2c(-c3ccc(CN4CCC(c5noc(-c6ccccn6)n5)CC4)cc3)nc3ncccn23)cc1` [Example 116, ′3-phenyl-2-(4-{[4-(5-pyridin-2-yl-1,2,4-oxadiazol-3-yl)piperidin-1-yl]methyl}phenyl)imidazo[1,2-a]pyrimidine], the figure is below 10 µM.

The values above are taken from patent publication US9387204B2, “Fused bicyclic imidazoles” (BAYER INTELLECTUAL PROPERTY GmbH, priority 2007, dated 2016).
